Reference: US5914351A, “Anti-viral aromatic hydrazones” (Uniroyal Chemical Company, Inc., priority 1997, dated 1999)
≈ marks a conversion by molar mass, not a printed value. Blank lines part the entries; values can stand above or below the compound they belong to.

Columns and labels:
Assay type in all cases: cell-based
HIV-1 IIIB = assay: Inhibition of HIV-1 induced syncytium formation in CEM cells, HIV-1 IIIB (wild type); settings: Human immunodeficiency virus 1, CCRF-CEM, 96 h, day 4 post infection
Excerpt: (§1) CEM cells were obtained from the American Tissue Cell Culture Collection (Rockville, Md.). HIV-1 (IIIB) was originally obtained from the culture supernatant of persistently HIV-1-infected H9 cells and was provided by R. C. Gallo and M. Popovic (National Cancer Institute, National Institutes of Health, Bethesda, Md.). The selection and characterization of the HIV-1 RT mutant strains were done as follows: HIV-1/100-Ile ("100-Ile") was selected for resistance against TIBO R82150 as described in Balzarini et al, Virology 192: 246-253 (1993); HIV-1/103-Asn ("103-Asn") was selected for resistance against TIBO R82913 as described in Balzarini et al, Virology 192: 246-253 (1993); HIV-1/106-Ala ("106-Ala") was selected for resistance against nevirapine as described in Balzarini et al, J. Virol. 67: 5353-5359 (1993); HIV-1/138-Lys ("138-Lys") was selected for resistance against TSAO-m^3T as described in Balzarini et al, Virology 192: 246-253 (1993) and Balzarini et al, Proc. Nat. Acad. Sci. U.S.A. 90: 6952-6956 (1993); HIV-1/181-Cys ("181-Cys") was selected for resistance against pyridinone L-697,661 as described in Balzarini et al, Virology 192: 246-253 (1993); and HIV-1/188-His ("188-His") was selected for resistance against HEPT as described in Balzarini et al, Mol. Pharmocol. 44: 694-701 (1993). 188-His was then further converted to HIV-1/188-Leu ("188-Leu") upon further passage in cell culture in the absence of the HEPT.
(§2) CEM cells were suspended at ≈300,000 cells per mL of culture medium and infected with approximately 100 CCID50 (CCID50 being the 50% cell culture infective dose) of HIV-1 (IIIB) or one of the HIV-1 RT mutant strains described above. Then 100 μL of the infected cell suspensions was added to 200 μL microtiter plate wells containing 100 μL of appropriate serial (5-fold) dilutions of the test compounds. The inhibitory effect of the test compounds on HIV-1 induced syncytium formation in CEM cells was examined microscopically on day 4 post infection. The 50% effective concentration (EC50) was defined as the test compound concentration that inhibits syncytium formation in the HIV-1 infected cell cultures by 50%.

HIV-1/188-Leu = assay: Inhibition of HIV-1 induced syncytium formation in CEM cells, RT mutant 188-Leu; settings: Human immunodeficiency virus 1, CCRF-CEM, 96 h, read-out: EC50 188-Leu
Excerpt: as §1, with “188-His was then further converted to HIV-1/188-Leu ("188-Leu") upon further passage in cell culture in the absence of the HEPT.” left out

HIV-1/181-Cys = assay: Inhibition of HIV-1 induced syncytium formation in CEM cells, RT mutant 181-Cys; settings: Human immunodeficiency virus 1, CCRF-CEM, 96 h, read-out: EC50 181-Cys
Excerpt: as §1
as §2, with “The 50% effective concentration (EC50) was defined as the test compound concentration that inhibits syncytium formation in the HIV-1 infected cell cultures by 50%.” left out

HIV-1/103-Asn = assay: Inhibition of HIV-1 induced syncytium formation in CEM cells, RT mutant 103-Asn; settings: Human immunodeficiency virus 1, CCRF-CEM, 96 h, read-out: EC50 103-Asn
Excerpt: as §1, with “188-His was then further converted to HIV-1/188-Leu ("188-Leu") upon further passage in cell culture in the absence of the HEPT.” left out

HIV-1/100-Ile = assay: Inhibition of HIV-1 induced syncytium formation in CEM cells, RT mutant 100-Ile; settings: Human immunodeficiency virus 1, CCRF-CEM, 96 h, read-out: EC50 100-Ile
Excerpt: as §1, with “188-His was then further converted to HIV-1/188-Leu ("188-Leu") upon further passage in cell culture in the absence of the HEPT.” left out

HIV-1/106-Ala = assay: Inhibition of HIV-1 induced syncytium formation in CEM cells, RT mutant 106-Ala; settings: Human immunodeficiency virus 1, CCRF-CEM, 96 h, read-out: EC50 106-Ala
Excerpt: as §1
as §2, with “The 50% effective concentration (EC50) was defined as the test compound concentration that inhibits syncytium formation in the HIV-1 infected cell cultures by 50%.” left out

HIV-1/138-Lys = assay: Inhibition of HIV-1 induced syncytium formation in CEM cells, RT mutant 138-Lys; settings: Human immunodeficiency virus 1, CCRF-CEM, 96 h, read-out: EC50 138-Lys
Excerpt: as §1, §2

- EC50 (HIV-1 IIIB): 0.13 µg/mL (≈ 0.357 µM)
Compound: Cc1occc1C(=S)Nc1ccc(Cl)c(C=NN2CCOCC2)c1 [Compound 5, N-[4-chloro-3-[(4-morpholinylimino)methyl]phenyl]-2-methyl-3-furancarbothioamide]

Compound: Cc1occc1C(=S)Nc1ccc(Cl)c(C=NN2CCCC2)c1 [Compound 4]
- EC50 (HIV-1/188-Leu): 4.5 µg/mL (≈ 12.9 µM)
- EC50 (HIV-1/181-Cys): 0.1 µg/mL (≈ 0.287 µM)
- EC50 (HIV-1/103-Asn): 0.34 µg/mL (≈ 0.977 µM)
- EC50 (HIV-1/100-Ile): 0.33 µg/mL (≈ 0.949 µM)
- EC50 (HIV-1/106-Ala): 0.1 µg/mL (≈ 0.287 µM)
- EC50 (HIV-1/138-Lys): 0.08 µg/mL (≈ 0.23 µM)
- EC50 (HIV-1 IIIB): 0.015 µg/mL (≈ 0.0431 µM)

Compound: Cc1occc1C(=O)Nc1ccc(Cl)c(C=NN(C)C)c1 [Compound 1]
- EC50 (HIV-1/138-Lys): 1.6 µg/mL (≈ 5.23 µM)
- EC50 (HIV-1 IIIB): 0.225 µg/mL (≈ 0.736 µM)

Compound: Cc1occc1C(=O)Nc1ccc(Cl)c(C=NN2CCCC2)c1 [Compound 3]
- EC50 (HIV-1/181-Cys): 1 µg/mL (≈ 3.01 µM)
- EC50 (HIV-1/106-Ala): 1.3 µg/mL (≈ 3.92 µM)
- EC50 (HIV-1/138-Lys): 1.6 µg/mL (≈ 4.82 µM)
- EC50 (HIV-1 IIIB): 0.325 µg/mL (≈ 0.979 µM)

Compound: Cc1occc1C(=S)Nc1ccc(Cl)c(C=NN(C)C)c1 [Compound 2]
- EC50 (HIV-1/181-Cys): 0.13 µg/mL (≈ 0.404 µM)
- EC50 (HIV-1/103-Asn): 0.65 µg/mL (≈ 2.02 µM)
- EC50 (HIV-1/100-Ile): 0.14 µg/mL (≈ 0.435 µM)
- EC50 (HIV-1/106-Ala): 0.065 µg/mL (≈ 0.202 µM)
- EC50 (HIV-1/138-Lys): 0.04 µg/mL (≈ 0.124 µM)
- EC50 (HIV-1 IIIB): 0.008 µg/mL (≈ 0.0249 µM)
